Experimental data reported in US7138543B2, “Thiolalkyl benzoic acid derivatives” (Guilford Pharmaceuticals Inc., priority 2001, dated 2006).

How the values were obtained:
[1] = test system: transgenic HD mice of the N171-82Q strain; assay: Huntington's disease transgenic mouse model: rotarod and locomotion; type: in vivo
Method: Neuroprotective Effect of NAALADase Inhibitors in Transgenic Mouse Model of Huntington's Disease Behavioral Testing (Rotarod) Transgenic HD mice of the […]-[…] strain and non-transgenic littermates were treated with NAALADase inhibitor Compound B (30 mg/kg) or a vehicle from 10 weeks of age. The mice were placed on a rotating rod (“rotarod”). The length of time at which the mouse fell off the rotarod was recorded as a measure of motor coordination. […] The treatment with Compound B had no effect on the rotarod performance of normal non-HD mice. The total distance traveled by the mice was also recorded as a measure of overall locomotion.

[2] = test system: rats with unilateral elevation of intraocular pressure; assay: Experimental rat glaucoma (IOP elevation, optic nerve fiber counting); type: in vivo; details: for FIBER NUMBER: 10 mg/kg daily intraperitoneal; for PERCENT DIFFERENCE in fiber number between glaucoma and normal eye: positive value indicates fewer fibers in the glaucoma eye
Method: Protective Effect of NAALADase Inhibitors in Experimental Rat Glaucoma
(§1) All experiments complied with the Association for Research in Vision and Ophthalmology Statement for the Use of Animals in Ophthalmic and Vision Research. 82 male Brown Norway rats (Rattus norvegicus), each weighing approximately 250 gm, were treated using procedures approved by the Animal Care Committee of the Johns Hopkins University School of Medicine. The rats were housed with a 12 hour light/12 hour dark cycle and fed ad libitum.
EXPERIMENTAL GLAUCOMA: Unilateral elevation of intraocular pressure (“IOP”) was produced in 56 rats by microinjection of hypertonic saline into episcleral veins, following procedures described in Morrison, J. et al., IOVS (March 1998) 39:526–531. Beginning on the day of IOP elevation, the rats were treated daily with intraperitoneal injections of either a vehicle (23 rats with 50 mM HEPES-buffered saline) or a NAALADase inhibitor (11 rats with 10 mg/kg of Compound A and 22 rats with 10 mg/kg of Compound B). 11 saline treated rats, 11 Compound A treated rats and 11 Compound B treated rats were sacrificed at 8 weeks, and the remaining rats at 12 weeks, after initial IOP elevation.
(§2) OPTIC NERVE COUNTING: The rats were sacrificed by exsanguination under deep pentobarbital anesthesia. They were perfused through the heart with 2% paraformaldehyde/2% glutaraldehyde in 0.1 M phosphate buffer, pH 7.2, and the eyes with attached optic nerves were removed. A cross-section of the optic nerve from both experimental (glaucoma or transection) and control eyes was removed 1.5 mm posterior to the globe, 1 mm in thickness, and post-fixed in 2% osmium tetroxide in buffer. These were processed into epoxy resin, sectioned at 1 micron and stained with toluidine blue.
(§3) The area of the optic nerve cross-section was measured by outlining its outer border at 10× magnification on an image analysis system (Universal Imaging Corp., Westchester, Pa.) with Synsys digital camera and Metamorph software. Three area measurements were taken and the mean value was determined. To measure the density and fiber diameter distributions, images were captured with a 100× phase contrast objective from 10 different areas of each nerve. These were edited to eliminate non-neural objects and the size of each axon internal to the myelin sheath (its minimum diameter) and the density of axons/square mm were calculated for each image and nerve. The mean density was multiplied by total nerve area to yield fiber number for each nerve. The total fiber number in glaucoma or transection nerves was compared to the normal, fellow eye of each rat to yield a percent loss value. The number of axons counted among the 10 images was an approximately 20% sample of the 80–90,000 axons in normal rat nerves. The person measuring axon number was masked to the protocol conducted on the nerves.

[3] = test system: rats with unilaterally transected optic nerve; assay: Optic nerve transection (optic nerve fiber counting); type: in vivo, Rattus norvegicus; details: for FIBER NUMBER: 10 mg/kg daily intraperitoneal
Method: as §1
OPTIC NERVE TRANSECTION: The optic nerve was transected unilaterally in 26 rats under intraperitoneal pentobarbital anesthesia. The conjunctiva was opened with scissors and the optic nerve exposed by traction on extraocular muscles. The transection was performed with microscissors 5 mm posterior to the globe, with specific attention to avoidance of injury to major ocular blood vessels. Immediately after transection, the retina was examined ophthalmoscopically to assure that the retinal arterial blood supply was not disrupted. The conjunctiva was closed with absorbable suture and the eye dressed with antibiotic ointment. Beginning on the day of transection, the rats were treated daily with intraperitoneal injections of either a vehicle (9 rats with 50 mM HEPES-buffered saline) or a NAALADase inhibitor (8 rats with 10 mg/kg of Compound A and 9 rats with 10 mg/kg of Compound B). 5 saline treated rats, 3 Compound A treated rats, and 4 Compound B treated rats were sacrificed at 2 weeks, and the remaining rats at 4 weeks, after transection.
as §2, §3

[4] = test system: transgenic HD mice (N171-82Q); assay: Huntington's disease transgenic mouse model: survival; type: in vivo
Method: The effects of Compound B and vehicle on the survival of transgenic HD mice (N171-82Q) were evaluated. Thirteen mice (six male and seven female) were assigned to the Compound B treatment group, and fourteen mice (six male and eight female) were assigned to the vehicle treatment group. Treatment was continued until all the mice died.

BB/W diabetic rats [5] = assay: Nerve conduction velocity in BB/W model; type: in vivo; details: 10 mg/kg daily; vs diabetic vehicle controls, from 8 weeks to six months, FIG. 12
Excerpt: (§4) Male BB/W rats (BRI, Mass) spontaneously develop a cell mediated autoimmune destruction of pancreatic B cells, resulting in onset of insulin-dependent (Type I) diabetes (Awata, Guberski, Endocrinology (1995) 136(12):5731–5). […] This renders them valuable for experimental trials of new compounds for future treatments of this major disorder. In the present study, Compound A and Compound D were examined for their ability to alter the progression of diabetic neuropathy. The rats received daily injection of Compound A or Compound D (10 mg/kg i.p.) or vehicle, starting at the onset of diabetes (hyperglycemia) and up to 6 months thereafter. Another group of non-diabetic rats also receiving vehicle were tested. All animals were continuously monitored for body weight, urine volume, blood sugar and glycated haemoglobin. In the first month of the study, all animals were tested for thermal nociception in a Hargreaves apparatus, weekly. After the first month this was done biweekly and then monthly. […]
Nerve conduction velocity was also measured every two weeks through the first eight weeks of treatment and every month thereafter through to the six months of treatment (see De Koning et al., Peptides, Vol. 8, No. 3, pp. 415–22 (1987) for a description of the experimental method). […]

STZ-diabetic rats [6] = assay: Diabetic neuropathy in STZ model (motor and sensory nerve conduction velocity); type: in vivo
Method: In vivo Assay of NAALADase Inhibitors on Diabetic Neuropathy in STZ Model
Motor and sensory nerve conduction velocity was also measured in STZ-diabetic animals after 4, 8 and 12 weeks of treatment (see De Koning et al., supra, for a description of the experimental method). Briefly, stimulating needle electrodes were inserted close to the sciatic and tibial nerves with recording electrodes being placed subcutaneously over the distal foot muscles, in anesthetized rats.

BB/W diabetic rats [7] = assay: Progression of neuropathic pain in BB/W model (withdrawal latency); type: in vivo; details: 10 mg/kg i.p. daily; vs diabetic vehicle-treated rats, from 4 weeks through six months of treatment, FIG. 11
Excerpt: In vivo Assay of NAALADase Inhibitors on Progression of Neuropathic Pain in BB/W Models
as §4, with “monthly. The testing consists of directing an infrared heat source onto the dorsal surface of the rat hindpaw and noting the time taken for the animal to remove its paw (see Hargreaves et al., J. Biol. Chem. (1988) 263(36):19392–7 for a description of the experimental method).” for “monthly.”

STZ diabetic rats [8] = assay: Reversal of diabetic neuropathy in STZ model, delayed dosing: nerve conduction velocity; type: in vivo
Method: (§5) In vivo Assay of NAALADase Inhibitors—Reversal of Diabetic Neuropathy in STZ Model
(§6) General Method for STZ Model—Delayed Dosing
(§7) Rats (200–225 grams) were injected with STZ (70 mg/kg) into the tail vein. Diabetes (>350 mg/dl) was confirmed in all rats, 4 weeks after STZ administration. Rats were left untreated until 35–49 days after STZ. Compound D (1, 3, or 10 mg/kg), Compound E (10 mg/kg), or vehicle were dosed daily p.o. following confirmation of hyperalgesia and/or nerve conduction velocity deficits. In separate experiments, onset of treatment was delayed until 60 to 90 days after STZ administration. Nerve conduction velocity or withdrawal response to thermal stimulation of hind paws was measured at intervals, usually bi-weekly for thermal response and monthly for nerve conduction velocity.
Nerve Conduction Velocity Measurements
Sensory and motor nerve conduction velocities were evaluated using the method of De Koning and Gispen (Peptides 8: 415–422, 1987). Electrophysiological evaluation was carried out within one hour of dosing. Animals were anesthetized with isoflurane and stimulating needle electrodes were inserted close to the sciatic nerve at the sciatic notch and the tibial nerve near the ankle. Recording electrodes were placed over the foot muscles. Stimuli were applied and responses recorded. Motor and sensory nerve conduction velocities were calculated by measuring the distance between the sciatic notch and ankle sites, and the latency between the M-wave and the H-reflex.

STZ-diabetic rats [9] = assay: Neuropathic pain in STZ model (Hargreaves thermal nociception); type: in vivo, Sprague-Dawley rats; details: 10 mg/kg i.p. daily, started 45 days post-STZ
Method: In vivo Assay of NAALADase Inhibitors on Neuropathic Pain in STZ Model
Male Sprague-Dawley rats (200–225 g) were rendered diabetic by intravenous administration of streptozotocin (“STZ”, 70 mg/kg in phosphate buffered saline). Diabetic animals were divided into five groups: one group receiving Compound A (10 mg/kg or 1 mg/kg), Compound D (10 mg/kg or 1 mg/kg) or vehicle. Another group of animals (non-STZ treated) served as non-diabetic controls. Drug/vehicle treatment was started in diabetic animals 45 days post-STZ administration. STZ-induced diabetic rats were tested for sensitivity to a heat source as soon as blood glucose levels rose to 320 mg/dl or above (30 days post STZ). The rats were then acclimated to a Hargreaves apparatus and thermal nociception was monitored using an infrared heat source directed into the dorsal surface of the hindpaw, and the time taken for the animal to remove its paw noted to the nearest 0.1 seconds (see Hargreaves et al., J. Biol. Chem. (1988) 263(36):19392–7 for a description of the experimental method). The intensity of the beam source was adjusted such that the mean latency for control animals (non-STZ treated) was approximately 10 seconds. Each animal was tested 8 times and the mean difference score (between mean non-diabetic control latency and mean diabetic latency) are graphically presented in FIGS. 7A and 7B.

STZ diabetic rats [10] = assay: Reversal of diabetic neuropathy in STZ model, delayed dosing: thermal hyperalgesia; type: in vivo
Method: as §5, §6, §7
Animals were acclimated to the apparatus for at least 5 min. An infra-red source was placed under below the plantar surface of the rat hind-paw. The intensity of the source was adjusted so that latency for normal rats was about 10 secs. Animals were tested for thermal response latency according to the method of Hargreaves et al (Pain 77–88, 1988). Each animal was tested 8 times (4 each hind limb) and the latency of response recorded automatically to nearest 0.1 sec. An average of the last 4 measurements for each paw was calculated (8 total measurements) and noted for each rat.

[11] = 2 weeks survival after transection
[12] = 4 weeks survival after transection

Q: What does the source list for `O=C(O)CCC(CCCS)C(=O)O` (stereo not drawn) [Compound B, 2-(3-sulfanylpropyl)pentanedioic acid]?
A: rotarod performance ([1]; normal non-HD mice, 30 mg/kg): no effect; rotarod performance (time on rotarod) ([1]; transgenic HD mice, 30 mg/kg from 10 weeks of age, vs vehicle, FIG. 33): stayed longer on the rotarod; FIBER NUMBER ([2]; 8 week group): 80785 ± 2121; PERCENT DIFFERENCE in fiber number between glaucoma and normal eye ([2]; 8 week group): −0.82 ± 2.97%; FIBER NUMBER ([2]; 12 week group): 90504 ± 1718; PERCENT DIFFERENCE in fiber number between glaucoma and normal eye ([2]; 12 week group): −3.21 ± 2.86%; remaining axons relative to the saline-treated rats ([3]; 2 weeks after transection): twice; PERCENT DIFFERENCE in fiber number [3, 11]: 75.3 ± 14.8%; FIBER NUMBER [3, 11]: 19,550 ± 11,383; PERCENT DIFFERENCE in fiber number [3, 12]: 93.4 ± 6.2%; FIBER NUMBER [3, 12]: 5,162 ± 5,017; survival time ([4]; female transgenic HD mice, vs vehicle, p-value=0.03, FIG. 37): significantly prolonged survival time; median survival time ([4]; transgenic HD mice, all, vehicle 158.5 days, p-value=0.07, FIG. 35): 184 days

Q: What does the source list for `O=C(O)CCC(CCS)C(=O)O` (stereo not drawn) [Compound D, 2-(2-sulfanylethyl)pentanedioic acid]?
A: nerve conduction velocity (BB/W diabetic rats [5]): significantly less severe nerve conduction deficits; treatment time at which increase of motor and sensory nerve conduction velocities was significant (STZ-diabetic rats [6]; 1 mg/kg dose): at the earlier time periods; motor and sensory nerve conduction velocities (STZ-diabetic rats [6]; either dose (10 mg/kg or 1 mg/kg), vs diabetic controls, FIGS. 10A and 10B): increased both motor and sensory nerve conduction velocities; withdrawal latency (BB/W diabetic rats [7]): longer withdrawal latencies; motor nerve conduction velocity (STZ diabetic rats [8]; daily p.o., within 8 weeks of dosing, persisted through 12 weeks, FIG. 23): reversed the motor nerve conduction velocity towards normal; motor nerve conduction (STZ diabetic rats [8]; lower doses (1 and 3 mg/kg), even 8 weeks after dosing, FIG. 27): remained unimproved; sensory nerve conduction (STZ diabetic rats [8]; lower doses (1 and 3 mg/kg), within 4 weeks of treatment, FIG. 26): significantly improved towards normal; sensory and motor nerve conduction velocity deficits (STZ diabetic rats [8]; untreated until 60 days after STZ treatment, external CRO, FIGS. 28 and 29): Partial reversal of both deficits; hyperalgesic response (withdrawal latency difference score) (STZ-diabetic rats [9]): completely reversed; neuropathic hyperalgesia (thermal response latency) (STZ diabetic rats [10]; daily p.o., treatment from 5 weeks post STZ, within two weeks of treatment, FIG. 22): reversed towards normal; neuropathic pain abnormalities (STZ diabetic rats [10]; lower doses (1 and 3 mg/kg) initiated after 7 weeks of STZ treatment, FIG. 25): Significant reduction in pain abnormalities
